Source: patent publication US12577216B2, “Triazine benzoate compound and application thereof” (SHENYANG SINOCHEM AGROCHEMICALS R&D CO., LTD., priority 2020, dated 2026)
Where two headings read alike, the source gives them in different places.

Experiments:
Assay type in all cases: in vivo
[1] = system: piemarker; test: Determination of herbicidal activity, post-emergence stem and leaf spray, piemarker; conditions: for Herbicidal activity for Piemarker, control effect %: Table 4 parallel comparison; for pest or weed control at 150 g/ha: post-emergence, read-out: control effects on piemarker
Description: (§1) Seeds of broadleaf weeds (zinnia and piemarker) or grassy weeds (green bristlegrass and barnyard grass) were respectively sown in a paper cup having a diameter of 7 cm and containing nutrient soil; after sowing, the seeds were covered with 1 cm of soil; the soil was pressed and watered, and then the seeds were cultivated in a greenhouse according to a conventional method; and stems and leaves were sprayed after 2-3 leaf stage of the weeds.
(§2) After the original medicinal acetone was dissolved, the test requires to use 1‰ of Tween 80 to stand in running water to prepare the solution to be tested with a required concentration. According to the design dose of the test, spray treatment was carried out on a track-type crop sprayer (designed and produced by British Engineer Research Ltd.) (spray pressure is 1.95 kg/cm^2, spray volume is 500 L/hm^2 and track speed is 1.48 km/h). The test was repeated for three times. The test material was treated and then placed in an operation hall. The medicinal liquid was naturally dried in the shade, and then was placed in a greenhouse and managed according to the conventional method. The response of the weeds to the drug was observed and recorded. After treatment, the control effects of the test drug on the weeds were visually inspected regularly, expressed by 0-100%. “0” represents no control effect and “100%” represents complete killing.

[2] = system: zinnia; test: Determination of herbicidal activity, post-emergence stem and leaf spray, zinnia; conditions: for control effects on zinnia: 150 g a.i./hm^2, after emergence, visual 0-100%; for Herbicidal activity for Zinnia, control effect %: Table 3 parallel comparison
Description: as §1, §2

[3] = system: green bristlegrass; test: Determination of herbicidal activity, post-emergence stem and leaf spray, green bristlegrass; conditions: Table 5 parallel comparison
Description: as §1, §2

[4] = 150 g a.i./hm^2, after emergence, visual 0-100%
[5] = 2.34 g a.i./hm^2, after emergence
[6] = 9.375 g a.i./hm^2, after emergence
[7] = 37.5 g a.i./hm^2, after emergence

| SMILES | control effects on piemarker [1, 4] [%] | control effects on zinnia [2] [%] | Herbicidal activity for Piemarker, control effect % [1, 5] [%] | Herbicidal activity for Piemarker, control effect % [1, 6] [%] | Herbicidal activity for Zinnia, control effect % [2, 5] [%] | Herbicidal activity for Zinnia, control effect % [2, 6] [%] | pest or weed control at 150 g/ha [1, 4] [%] | Herbicidal activity for Green Bristlegrass, control effect % [3, 6] [%] | Herbicidal activity for Green Bristlegrass, control effect % [3, 7] [%] | pest or weed control at 150 g/ha [1] [%] |
| --- | --- | --- | --- | --- | --- | --- | --- | --- | --- | --- |
| CC(OC(=O)c1cc(-n2c(=O)n(C)c(=S)n(C)c2=O)ccc1Cl)C(=O)OCCCl (racemic) [Compound 138] | 100 | – | – | – | – | – | – | – | – | – |
| CC(OC(=O)c1cc(-n2c(=O)n(C)c(=S)n(C)c2=O)c(F)cc1Cl)C(=O)OCCCl (racemic) [Compound 265] | 100 | 100 | 90 | 100 | – | – | – | – | – | – |
| CC(OC(=O)c1cc(-n2c(=O)n(C)c(=S)n(C)c2=O)c(F)cc1Cl)C(=O)OCCCCl (racemic) [Compound 268] | 100 | 100 | – | – | 85 | 100 | – | – | – | – |
| CC(OC(=O)c1cc(-n2c(=O)n(C)c(=S)n(C)c2=O)ccc1Cl)C(=O)OCC1CC1 (stereo not drawn) [Compound 160] | 100 | – | – | – | – | – | – | – | – | – |
| Cn1c(=S)n(C)c(=O)n(-c2cc(C(=O)OCC(=O)OCCCCl)c(Cl)cc2F)c1=O [Compound 222, 2-chloro-4-fluoro-5-(3,5-dimethyl-2,6-dioxo-4-thio-1,3,5-triazine-1-yl)benzoic acid (3-chloropropoxycarbonyl) methyl ester] | – | 100 | – | – | 100 | 100 | 100 | 60 | 90 | – |
| Cn1c(=S)n(C)c(=O)n(-c2cc(C(=O)OCC(=O)OCC3COC(C)(C)O3)c(Cl)cc2F)c1=O (stereo not drawn) [Compound 247] | 100 | 100 | – | – | 100 | 100 | – | 60 | 90 | – |
| CC(OC(=O)c1cc(-n2c(=O)n(C)c(=S)n(C)c2=O)c(F)cc1Cl)C(=O)OCCF (stereo not drawn) [Compound 264] | 100 | 100 | – | – | 90 | 100 | – | – | – | – |
| C[C@@H](OC(=O)c1cc(-n2c(=O)n(C)c(=S)n(C)c2=O)c(F)cc1Cl)C(=O)OCCCl [Compound 266] | – | 100 | – | – | 85 | 100 | 100 | – | – | – |
| C[C@H](OC(=O)c1cc(-n2c(=O)n(C)c(=S)n(C)c2=O)c(F)cc1Cl)C(=O)OCCCl [Compound 267] | – | 100 | 90 | 100 | 85 | 100 | 100 | – | – | – |
| C[C@@H](OC(=O)c1cc(-n2c(=O)n(C)c(=S)n(C)c2=O)c(F)cc1Cl)C(=O)OCCCCl [Compound 269] | 100 | 100 | – | – | 80 | 95 | – | – | – | – |
| C[C@H](OC(=O)c1cc(-n2c(=O)n(C)c(=S)n(C)c2=O)c(F)cc1Cl)C(=O)OCCCCl [Compound 270] | 100 | 100 | 85 | 100 | 90 | 100 | – | – | – | – |
| CC(OC(=O)c1cc(-n2c(=O)n(C)c(=S)n(C)c2=O)c(F)cc1Cl)C(=O)OCCCCCl (stereo not drawn) [Compound 273] | 100 | 100 | 90 | 100 | – | – | – | – | – | – |
| CC(OC(=O)c1cc(-n2c(=O)n(C)c(=S)n(C)c2=O)c(F)cc1Cl)C(=O)OC/C=C/Cl (stereo not drawn) [Compound 281, (E)-2-chloro-4-fluoro-5-(3,5-dimethyl-2,6-dioxo-4-thio-1,3,5-triazine-1-yl)benzoic acid (1-(3-chloroallyloxycarbonyl))ethyl ester] | – | 100 | – | – | 90 | 100 | – | 60 | 90 | 100 |
| CC(OC(=O)c1cc(-n2c(=O)n(C)c(=S)n(C)c2=O)c(F)cc1Cl)C(=O)OCC=C(Cl)Cl (stereo not drawn) [Compound 283] | 100 | 100 | – | – | 100 | 100 | – | 50 | 85 | – |
| CC(OC(=O)c1cc(-n2c(=O)n(C)c(=S)n(C)c2=O)c(F)cc1Cl)C(=O)OCc1ccccc1 (stereo not drawn) [Compound 289] | 100 | 100 | – | – | – | – | – | – | – | – |
| CC(OC(=O)c1cc(-n2c(=O)n(C)c(=S)n(C)c2=O)c(F)cc1Cl)C(=O)OC/C=C/c1ccccc1 (stereo not drawn) [Compound 290] | 100 | 100 | – | – | – | – | – | – | – | – |
| CC(OC(=O)c1cc(-n2c(=O)n(C)c(=S)n(C)c2=O)c(F)cc1Cl)C(=O)OCC1CCCC1 (stereo not drawn) [Compound 293] | 100 | 100 | 85 | 100 | 90 | 100 | – | – | – | – |
| CC(OC(=O)c1cc(-n2c(=O)n(C)c(=S)n(C)c2=O)c(F)cc1Cl)C(=O)OCC1CO1 (stereo not drawn) [Compound 295] | 100 | 100 | – | – | 90 | 100 | – | – | – | – |
| CC(OC(=O)c1cc(-n2c(=O)n(C)c(=S)n(C)c2=O)c(F)cc1Cl)C(=O)OCC1CCCO1 (stereo not drawn) [Compound 296] | 100 | 100 | – | – | 90 | 100 | – | – | – | – |
| CC(OC(=O)c1cc(-n2c(=O)n(C)c(=S)n(C)c2=O)c(F)cc1Cl)C(=O)OCC1COC(C)(C)O1 (stereo not drawn) [Compound 297] | 100 | 100 | 85 | 100 | 95 | 100 | – | – | – | – |
| CCOC(=O)C(CC)OC(=O)c1cc(-n2c(=O)n(C)c(=S)n(C)c2=O)c(F)cc1Cl (stereo not drawn) [Compound 299] | – | 100 | 85 | 100 | – | – | – | – | – | – |
| CCC(OC(=O)c1cc(-n2c(=O)n(C)c(=S)n(C)c2=O)c(F)cc1Cl)C(=O)OCCF (stereo not drawn) [Compound 300, 2-chloro-4-fluoro-5-(3,5-dimethyl-2,6-dioxo-4-thio-1,3,5-triazine-1-yl)benzoic acid (1-(2-fluoroethoxycarbonyl))propyl ester] | – | 100 | – | – | – | – | 100 | – | – | – |
| CCC(OC(=O)c1cc(-n2c(=O)n(C)c(=S)n(C)c2=O)c(F)cc1Cl)C(=O)OCCCl (stereo not drawn) [Compound 301] | 100 | 100 | – | – | – | – | – | – | – | – |
| CCC(OC(=O)c1cc(-n2c(=O)n(C)c(=S)n(C)c2=O)c(F)cc1Cl)C(=O)OCCCCl (stereo not drawn) [Compound 302] | 100 | 100 | – | – | 90 | 100 | – | – | – | – |
| CCC(OC(=O)c1cc(-n2c(=O)n(C)c(=S)n(C)c2=O)c(F)cc1Cl)C(=O)OCCCCCl (stereo not drawn) [Compound 303] | 100 | 100 | – | – | 85 | 100 | – | – | – | – |
| CCC(OC(=O)c1cc(-n2c(=O)n(C)c(=S)n(C)c2=O)c(F)cc1Cl)C(=O)OCC1CC1 (stereo not drawn) [Compound 304] | 100 | 100 | – | – | 80 | 100 | – | – | – | – |
| CCOC(=O)C(OC(=O)c1cc(-n2c(=O)n(C)c(=S)n(C)c2=O)c(F)cc1Cl)C(C)C (stereo not drawn) [Compound 305] | 100 | 100 | – | – | – | – | – | – | – | – |
| CCOC(=O)C(C)(C)OC(=O)c1cc(-n2c(=O)n(C)c(=S)n(C)c2=O)c(F)cc1Cl [Compound 306, 2-chloro-4-fluoro-5-(3,5-dimethyl-2,6-dioxo-4-thio-1,3,5-triazine-1-yl)benzoic acid (1-methyl-1-ethoxycarbonyl)ethyl ester] | – | – | – | – | – | – | 100 | – | – | – |
